The values that follow are results of earlier work, collected in US6992047B2, “Method of microencapsulating an agricultural active having a high melting point and uses for such materials” (Monsanto Technology LLC, priority 2001, dated 2006).

The conditions of the data set: at 20° C.

As to `C=CCNC(=O)c1c([Si](C)(C)C)sc(C)c1C` [silthiopham, 4,5-dimethyl-N-(2-propenyl)-2-(trimethylsilyl)-3-thiophenecarboxamide], the water solubility was 35 ppm.
